Patent publication US20250161477A1, “NOVEL METHODS OF THERAPY” (BIVICTRIX LIMITED, priority 2022, published 2025)

B1: BVX04-a0094-AB4A-1 (CD33xCD56 Bi-Fab ADC) (bispecific antibody, not shown: large carriers)
heavy 1: EVQLVQSGAEVKKPGSSVKVSCKASGYTITDSNIHWVRQAPGQSLEWIGYIYPYNGGTDYNQKFKNRATLTVDNPTNTAYMELSSLRSEDTAFYYCVNGNPWLAYWGQGTLVTVSS
light 1: DIQLTQSPSTLSASVGDRVTIICRASESLDNYGIRFLTWFQQKPGKAPKLLMYAASNQGSGVPSRFSGSGSGTEFTLTISSLQPDDFATYYCQQTKEVPWSFGQGTKLEIK
heavy 2: EVQLVQSGAEVKKPGSSVKVSCKASGGTFTGYYMHWVRQAPGQGLEWMGWINPNSGGTNYAQKFQGRVTMTRDTSISTAYMELSRLRSDDTAVYYCARDLSSGYSGYFDYWGQGTLVTVSS
light 2: DVVMTQSPLSLPVTPGEPASISCRSSQSLLHSNGYNFLDWYLQKPGQSPQLLIYLGSNRASGVPDRFSGSGSGTDFTLKISRVEADDVGVYYCMQSLQTPWTFGHGTKVEIK

Key:
[1] = system: Human CD34+ progenitor cells; assay: Colony forming unit assay: differentiation of healthy CD34+ progenitor cells to myeloid CD33+ cells
Experimental: Methocult was thawed at 4° C. overnight. Methocult was shaken and allowed to stand at room temperature until all the bubbles had dispersed and aliquoted into 3 mL aliquots. A 6-point dose titration was prepared for each antibody in PBS to achieve the following final concentrations: 10, 3, 1, 0.1, 0.01 and 0 nM. Enough of each dilution was prepared to test activity across duplicate wells. Each titration was pipetted into a 1.5 mL tube. CD34+ cells were thawed at 37° C. and suspended in 2% FBS IMDM. 300 μL of suspension containing 3000 CD34+ cells were pipetted into each 1.5 mL tube containing antibody titration and the solution gently was mixed by pipetting. […] The total volume of antibody dilution added to the cells was 30 μL in all conditions. The cell suspension/conjugate mix was pipetted into a 3 mL aliquot of Methocult, vortexed for 5 seconds and allowed to stand at room temperature until the bubbles had disappeared. Using an 18-gauge blunt needle and 6 mL syringe, 1 mL of cell/conjugate/Methocult mix was transferred to a well of a Smart dish and each condition was tested across duplicate wells. Each plate was rocked to ensure the Methocult covered the entire well surface evenly and then placed in a 37° C., 5% CO2 incubator. The colonies were counted on day 9 and day 14 and the data plotted in Excel.

human CD33 (human) = human CD33 (human) (UniProt P20138); assay: cell-based or functional assay
Sequence of human CD33 (human) (P20138 18-364 R69G limits assumed): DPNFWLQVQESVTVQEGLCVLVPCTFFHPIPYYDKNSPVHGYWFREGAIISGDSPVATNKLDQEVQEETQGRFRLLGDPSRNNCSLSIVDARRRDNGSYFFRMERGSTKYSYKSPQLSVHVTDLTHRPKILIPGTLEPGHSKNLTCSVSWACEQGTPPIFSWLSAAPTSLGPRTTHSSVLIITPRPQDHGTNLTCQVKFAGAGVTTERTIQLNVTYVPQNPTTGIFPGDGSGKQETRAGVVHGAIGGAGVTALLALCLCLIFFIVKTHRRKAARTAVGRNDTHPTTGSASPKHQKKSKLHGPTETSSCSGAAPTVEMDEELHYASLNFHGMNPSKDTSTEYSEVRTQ

human CD56 (human) = human CD56 (human) (UniProt P13591); assay: cell-based or functional assay
Sequence of human CD56 (human) (P13591 other isoform, or with tags, fused parts or gaps limits assumed): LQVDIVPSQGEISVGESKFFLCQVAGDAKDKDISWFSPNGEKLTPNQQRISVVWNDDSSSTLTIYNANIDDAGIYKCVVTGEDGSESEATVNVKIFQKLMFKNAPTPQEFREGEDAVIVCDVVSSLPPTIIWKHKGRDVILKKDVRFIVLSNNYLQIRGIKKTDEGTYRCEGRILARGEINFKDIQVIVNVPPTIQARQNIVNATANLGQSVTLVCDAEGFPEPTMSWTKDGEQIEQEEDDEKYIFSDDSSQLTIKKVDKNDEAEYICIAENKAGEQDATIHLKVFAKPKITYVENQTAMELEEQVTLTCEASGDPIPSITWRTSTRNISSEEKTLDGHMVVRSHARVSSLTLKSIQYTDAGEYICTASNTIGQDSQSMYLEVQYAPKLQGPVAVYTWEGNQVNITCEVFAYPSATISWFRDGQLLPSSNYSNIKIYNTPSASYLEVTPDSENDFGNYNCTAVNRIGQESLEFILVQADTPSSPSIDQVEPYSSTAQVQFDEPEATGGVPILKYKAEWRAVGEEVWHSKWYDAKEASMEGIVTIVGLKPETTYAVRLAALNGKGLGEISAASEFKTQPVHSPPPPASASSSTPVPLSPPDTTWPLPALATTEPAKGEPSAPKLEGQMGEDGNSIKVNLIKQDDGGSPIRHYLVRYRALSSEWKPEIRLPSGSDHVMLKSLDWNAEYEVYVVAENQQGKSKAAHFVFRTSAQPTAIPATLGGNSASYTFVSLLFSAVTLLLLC

Row | Molecule | Av. % of Colonies Surviving at 10 nM vs Control ([1]; 9 days of incubation, Experiment 1) [%] | Av. % of Colonies Surviving at 10 nM vs Control ([1]; 9 days of incubation, Experiment 2) [%] | Av. % of Colonies Surviving at 10 nM vs Control ([1]; 14 days of incubation, Experiment 1) [%] | Av. % of Colonies Surviving at 10 nM vs Control ([1]; 14 days of incubation, Experiment 2) [%] | Mean IC50, cell kill assay (WST-1, 96 h) on KASUMI-3 cells (CD33+/CD56+) (human CD33 (human)) [nM] | Mean IC50, cell kill assay (WST-1, 96 h) on SET-2 cells (CD33+/CD56-) (human CD33 (human)) [nM] | Mean IC50, cell kill assay (WST-1, 96 h) on KASUMI-3 cells (CD33+/CD56+) (human CD56 (human)) [nM] | Mean IC50, cell kill assay (WST-1, 96 h) on KE-37 cells (CD33-/CD56+) (human CD56 (human)) [nM]
1 | GEMTUZUMAB: Gemtuzumab (In House), CD33 monospecific antibody, unconjugated | 102.33 | 113.3 | 100.5 | 82.8 |  |  |  | 
2 | B1 |  |  |  |  | 0.061 | > 30 | 0.061 | > 30
